Patent publication US20250276996A1, “CATIONICALLY-ENFRAMED HIGH DENSITY AROMATIC PEPTIDES” (Research Foundation of the City University of New York, priority 2022, published 2025)
“And” between values parts separate entries of the source, which are not always exact repeats. Identical values can stand only once. “Also recorded” adds a separate entry of the source. Non-standard residues stand in square brackets, D forms with d. Residues, ends and D or L forms follow the SMILES beside them. *: point of attachment. Biotin = O=C1N[C@H]2[C@H](CS[C@H]2CCCCC(=O)*)N1

Legend:
ARPE-19 cells = experiment: Restoration of mitochondrial membrane potential after 3 days of serum starvation (TMRM); type: cell-based; details: 2 hours incubation after 3 days of serum starvation
Source text: Serum starvation for 3 days reduced mitochondrial membrane potential in serum-free controls (SFC), compared to regular cells grown on serum (FBS). […] Error bars represent SEM (n=5) ***P<0.001.

retina = experiment: Biotin-HDAP2 uptake and distribution in retina; type: in vivo, mice
Experimental: Biotin-HDAP2 (40 mg/kg) was administered intraperitoneally to mice (male or female) and 60 minutes later retina was collected, fixed and sectioned. […] (FIG. 7A and FIG. 7B).
Biotin-HDAP2 uptake in retina: Adult animals were injected with 50 mg/kg biotin-HDAP2 (IP; GenScript, Piscataway, NJ) reconstituted in saline and observed for 2 hours before sacrifice. Eyes were marked to record their orientation, and the animals were given an overdose of ketamine (300 mg/kg)/xylazine (60 mg/kg) (IP) before removing each eye from the orbit with forceps. Whole eyes were dropped into 4% paraformaldehyde that was constituted in either 0.1M Tris or phosphate buffers (pH 7.3) and after ten minutes, the cornea, lens and vitreous body were removed to ensure better penetration of the fixative into the retina. The eyecups were returned to the fixative for one hour. Retinas for wholemounts were dissected from the pigment epithelium by cutting along the or a serrata, gently teasing the retina away from the back of the eye and then freeing the retina by severing the optic nerve. Retinas for cryo-sectioning remained in the eyecup, were cryoprotected in 0.1M Tris or phosphate-buffered sucrose (10%, 20% and 30%) prior to embedding in OCT (Polyfreeze, Polysciences) and sectioned at a thickness of 14 μm at −25° C. using a cryostat (Leica CM3050S).
Immunohistochemistry: Fixed retinas were labeled with cell markers using conventional immunohistochemical protocols to identify cells and structures associated with biotin-HDAP2, and to identify retinal ganglion cells and starburst amacrine cells to assess cell survival following optic nerve crush. Retinas and sections were blocked and permeabilized with 4% normal donkey serum in 0.1M Tris or phosphate buffers with 0.5% Triton-X for 1 hour and then incubated overnight (for sections) or for 3 days (for wholemounts) at 4° C. in selected primary antibodies, and 2% normal donkey serum in the same buffer. […]

[1] = Displacement of nonyl acridine orange (NAO) from POPC-CL liposomes; type: binding, bovine
Experimental: The resulting multilamellar vesicles were vortexed lightly and sized into small unilamellar vesicles by heated bath sonication for 25 min. All liposomes were cooled to ambient temperature before use.
Interaction of biotin-HDAP2 Peptide with Phospholipids: The ability of biotin-HDAP2 to displace nonyl acridine orange (NAO), a fluoroprobe known to selectively bind CL was determined. Interaction of biotin-HDAP2 with phospholipids was examined by measuring changes in the fluorescence spectra of 3 μM NAO (Molecular Devices, Sunnyvale, CA)) with excitation at 480 nm. CL and POPC in liposomes were use at 30 μM. Dose response curves were done with 30 μM CL, biotin-HDAP2 (0, 2.5, 5, 10, 20, and 30 μM), and 3 μM of NAO (ex/em at 480 nm/520 nm). All experiments were done in 10 mM Hepes (pH 7.4) to optimize electrostatic interactions of peptides with phospholipids.

MDBK cells [2] = experiment: Cellular oxidative stress in serum-starved cells (CM-H2DCFDA); type: cell-based, bovine; details: 1 μM
Experimental: MDBK cells incubated in serum free media for 5-7 days in the presence or absence of 1 μM of biotin-HDAP2. At the end of the incubation period, 100 nM CM-H2DCFDA (oxidative stress marker) was added to the cells and incubated for 30 minutes. Then, media was removed and cells were fixed in 4% PFA. Cells were then visualized using a fluorescent microscope (Nikon Eclipse-ci-SRS). Experiments were conducted 5 times in triplicate for each experimental condition.
To measure the effects of biotin-HDAP2 on the mitochondrial potential and cellular oxidative stress, cells were cultured in DMEM/F12 without fetal bovine serum (FSB) in the presence or absence of biotin-HDAP2 (1 μM). […]
Unless otherwise noted, data for all tissue culture experiments were collected from three independent trials, with each experiment done in triplicate. […] Photooxidation of the indicator dyes were minimized by using single exposures to the fluorescence for each field imaged. Fluorescence intensity was analyzed using ImageJ (NIH), and MTR and CM-H2DCFDA fluorescence were normalized to Hoechst fluorescence to account for differences in cell number in each field. […] All data are expressed as means±SEM.

MDBK cells [3] = experiment: Serum starvation cell death, methylene blue staining; type: cell-based, bovine; details: serum-free media 5-7 days, read-out: EC50, prevention of cell death
Experimental: MDBK cells were incubated in serum-free media for 5-7 days in the presence or absence of different concentrations of biotin-HDAP2. At the end of the incubation period, media was removed, the cells were fixed in 4% PFA and then stained with Methylene Blue Loeffler for 30 minutes. Images were obtained using a Tiffen Zoom Camera, interfaced with PC Image, and analyzed using ImageJ NIH software. Experiments were conducted 5 times in triplicates for each experimental condition. Biotin-HDAP2 prevented cell death in a dose-dependent manner with EC50 of about 300 nM (FIG. 4).

N=C(N)NCCC[C@@H](NC(=O)[C@H](Cc1ccccc1)NC(=O)[C@H](Cc1ccccc1)NC(=O)[C@@H](CCCNC(=N)N)NC(=O)CCCC[C@@H]1SC[C@@H]2NC(=O)N[C@@H]21)C(N)=O [biotin-HDAP2, Biotin-dArg-Phe-Phe-dArg-NH2] (Biotin-[dR]FF[dR]-NH2)
restoration of mitochondrial membrane potential (ARPE-19 cells): restored mitochondrial membrane potential within 2 hours
distribution in retina (retina; 3 mg/kg, IP): labeled all layers of the retina
distribution in retina (retina; 40 mg/kg intraperitoneally, 60 minutes): widely distributed throughout the retina
penetration of the retina-blood barrier (retina; intravitreal injection and systemic administration): can penetrate the retina-blood barrier
effect on intensity of NAO fluorescence [1]: decreased the intensity of NAO fluorescence to background levels; also recorded: decreases the intensity of NAO fluorescence with POPC-CL liposomes in a dose-dependent manner
oxidative stress in starved cells (MDBK cells [2]; serum free 5-7 days, 100 nM CM-H2DCFDA): prevented oxidative stress in starved cells
reduction in CM-H2DCFDA fluorescence compared to control (MDBK cells [2]; serum-free): > 80% and 80%
EC50 (MDBK cells [3]): ~300 nM
